2 compounds from ChEMBL document CHEMBL4387741, “Optimization of novel reversible Bruton's tyrosine kinase inhibitors identified using Tethering-fragment-based screens” (Bioorg Med Chem, 2019) can be followed below.

Data set [1] concerns Receptor-type tyrosine-protein kinase FLT3 (Homo sapiens), P36888 [D835V]. Briefly: Inhibition of human partial length FLT3 D835V mutant (V592 to Y969 residues) expressed in bacterial expression system at 1 uM by Kinomescan method relative to control.
Data set [2] deals with cAMP-dependent protein kinase catalytic subunit PRKX (Homo sapiens) (UniProt P51817). In words: Inhibition of wild-type human partial length PRKX (M1 to F358 residues) expressed in bacterial expression system at 1 uM by Kinomescan method relative to control.
Data set [3] deals with Serine/threonine-protein kinase PRP4 homolog (Homo sapiens) (UniProt Q13523). In words: Inhibition of wild-type human partial length PRP4 (D657 to I1007 residues) expressed in bacterial expression system at 1 uM by Kinomescan method relative to control.
A short description of data set [4]: Lipophilicity, log D of the compound. The format is physicochemical. The note with it: octanol/water.
Data set [5] concerns the target Serine/threonine-protein kinase ULK3 (Homo sapiens) (UniProt Q6PHR2). In words: Inhibition of wild-type human partial length ULK3 (M1 to Q290 residues) expressed in mammalian expression system at 1 uM by Kinomescan method relative to control.
For data set [6], the target named is Serine/threonine-protein kinase 32B (Homo sapiens) (UniProt Q9NY57). Briefly: Inhibition of wild-type human full length YANK2 (M1 to S414 residues) expressed in bacterial expression system at 1 uM by Kinomescan method relative to control.
In data set [7] the test system is Mast/stem cell growth factor receptor Kit (Homo sapiens), P10721 [L576P]. In words: Inhibition of human partial length KIT L576P mutant (Y545 to D952 residues) expressed in bacterial expression system at 1 uM by Kinomescan method relative to control.
Data set [8] addresses Receptor-interacting serine/threonine-protein kinase 1 (Homo sapiens) (UniProt Q13546). In words: Inhibition of wild-type human partial length RIPK1 (M1 to K305 residues) expressed in bacterial expression system at 1 uM by Kinomescan method relative to control.
In data set [9] the target is Mitogen-activated protein kinase kinase kinase 6 (Homo sapiens) (UniProt O95382). In words: Inhibition of wild-type human partial length ASK2 (M278 to R972 residues) expressed in mammalian expression system at 1 uM by Kinomescan method relative to control.
The target in data set [10] is Dual specificity tyrosine-phosphorylation-regulated kinase 2 (Homo sapiens) (UniProt Q92630). Briefly: Inhibition of wild-type human full length DYRK2 (M1 to S528 residues) expressed in mammalian expression system at 1 uM by Kinomescan method relative to control.
Data set [11] has as its target SRSF protein kinase 1 (Homo sapiens) (UniProt Q96SB4). Briefly: Inhibition of wild-type human full length SRPK1 (M1 to S655 residues) expressed in bacterial expression system at 1 uM by Kinomescan method relative to control.
Data set [12] concerns the target MAP/microtubule affinity-regulating kinase 4 (Homo sapiens) (UniProt Q96L34). Briefly: Inhibition of wild-type human partial length MARK4 (K29 to G340 residues) expressed in bacterial expression system at 1 uM by Kinomescan method relative to control.
Data set [13] concerns the target Protein kinase C epsilon type (Homo sapiens) (UniProt Q02156). In words: Inhibition of wild-type human partial length PRKCE (A378 to P737 residues) expressed in mammalian expression system at 1 uM by Kinomescan method relative to control.
For data set [14], the system named is Receptor-type tyrosine-protein kinase FLT3 (Homo sapiens), P36888 [D835H]. Briefly: Inhibition of human partial length FLT3 D835H mutant (V592 to Y969 residues) expressed in bacterial expression system at 1 uM by Kinomescan method relative to control.
Data set [15] concerns the target Tyrosine-protein kinase ITK/TSK (Homo sapiens) (UniProt Q08881). In words: Inhibition of wild-type human partial length ITK (R335 to L620 residues) expressed in bacterial expression system at 1 uM by Kinomescan method relative to control.
Data set [16] deals with Bone morphogenetic protein receptor type-2 (Homo sapiens) (UniProt Q13873). Briefly: Inhibition of wild-type human partial length BMPR2 (R179 to Q526 residues) expressed in mammalian expression system at 1 uM by Kinomescan method relative to control.
Data set [17] deals with Transient receptor potential cation channel subfamily M member 6 (Homo sapiens) (UniProt Q9BX84). Briefly: Inhibition of wild-type human partial length TRPM6 (Q1723 to I1998 residues) expressed in mammalian expression system at 1 uM by Kinomescan method relative to control.
Data set [18] addresses Ribosomal protein S6 kinase alpha-2 (Homo sapiens) (UniProt Q15349). In words: Inhibition of wild-type human partial length C-terminal RSK3 kinase domain 2 (V403 to K700 residues) expressed in bacterial expression system at 10 uM by Kinomescan method relative to control.
Data set [19] has as its target Dual specificity mitogen-activated protein kinase kinase 1 (Homo sapiens) (UniProt Q02750). In words: Inhibition of wild-type human full length MEK1 (M1 to V393 residues) expressed in mammalian expression system at 10 uM by Kinomescan method relative to control.
Data set [20] deals with Tyrosine-protein kinase Fer (Homo sapiens) (UniProt P16591). In words: Inhibition of wild-type human partial length FER (S542 to T822 residues) expressed in bacterial expression system at 10 uM by Kinomescan method relative to control.
Data set [21] deals with Dual specificity mitogen-activated protein kinase kinase 7 (Homo sapiens) (UniProt O14733). In words: Inhibition of wild-type human full length MKK7 (M1 to R419 residues) expressed in mammalian expression system at 10 uM by Kinomescan method relative to control.
For data set [22], the target named is SRSF protein kinase 1 (Homo sapiens) (UniProt Q96SB4). In words: Inhibition of wild-type human full length SRPK1 (M1 to S655 residues) expressed in bacterial expression system at 10 uM by Kinomescan method relative to control.
In data set [23] the target is Serine/threonine-protein kinase 32B (Homo sapiens) (UniProt Q9NY57). In words: Inhibition of wild-type human full length YANK2 (M1 to S414 residues) expressed in bacterial expression system at 10 uM by Kinomescan method relative to control.
The target in data set [24] is Interleukin-1 receptor-associated kinase 4 (Homo sapiens) (UniProt Q9NWZ3). In words: Inhibition of wild-type human partial length IRAK4 (M1 to S460 residues) expressed in mammalian expression system at 10 uM by Kinomescan method relative to control.
Data set [25] relates to Receptor-type tyrosine-protein kinase FLT3 (Homo sapiens), P36888 [K663Q]. In words: Inhibition of human partial length FLT3 K663Q mutant (V592 to Y969 residues) expressed in bacterial expression system at 10 uM by Kinomescan method relative to control.
The target in data set [26] is Serine/threonine-protein kinase MAK (Homo sapiens) (UniProt P20794). In words: Inhibition of wild-type human partial length MAK (M1 to P314 residues) expressed in bacterial expression system at 10 uM by Kinomescan method relative to control.
In data set [27] the target is Receptor-type tyrosine-protein kinase FLT3 (Homo sapiens) (UniProt P36888). In words: Inhibition of wild-type human partial length autoinhibited FLT3 (H564 to Y969 residues) expressed in mammalian expression system at 10 uM by Kinomescan method relative to control.
Data set [28] deals with Serine/threonine-protein kinase haspin (Homo sapiens) (UniProt Q8TF76). Briefly: Inhibition of wild-type human partial length HASPIN (I452 to K798 residues) expressed in mammalian expression system at 10 uM by Kinomescan method relative to control.

As a reminder, the inhibition is the drop in the measured response relative to a control, in per cent. Low readings indicate a weak effect, high ones a strong effect. The term logD denotes lipophilicity at a set pH, counting ionised and neutral species. Low values mean a more hydrophilic compound, high ones a more lipophilic compound.

Chain of Serine/threonine-protein kinase 32B (Homo sapiens) (Q9NY57 whole entry, the tested form may be a part): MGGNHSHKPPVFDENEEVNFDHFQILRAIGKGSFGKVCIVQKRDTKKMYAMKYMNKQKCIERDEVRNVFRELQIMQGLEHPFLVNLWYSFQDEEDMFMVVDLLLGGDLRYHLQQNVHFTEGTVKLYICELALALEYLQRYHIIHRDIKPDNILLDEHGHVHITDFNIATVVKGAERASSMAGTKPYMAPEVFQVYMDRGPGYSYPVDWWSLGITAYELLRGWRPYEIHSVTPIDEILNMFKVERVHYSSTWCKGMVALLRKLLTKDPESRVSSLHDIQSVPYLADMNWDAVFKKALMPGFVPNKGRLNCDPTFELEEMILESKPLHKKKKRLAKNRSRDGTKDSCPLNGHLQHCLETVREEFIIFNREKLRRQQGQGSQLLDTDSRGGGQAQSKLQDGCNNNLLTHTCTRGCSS
Chain of SRSF protein kinase 1 (Homo sapiens) (Q96SB4 whole entry, the tested form may be a part): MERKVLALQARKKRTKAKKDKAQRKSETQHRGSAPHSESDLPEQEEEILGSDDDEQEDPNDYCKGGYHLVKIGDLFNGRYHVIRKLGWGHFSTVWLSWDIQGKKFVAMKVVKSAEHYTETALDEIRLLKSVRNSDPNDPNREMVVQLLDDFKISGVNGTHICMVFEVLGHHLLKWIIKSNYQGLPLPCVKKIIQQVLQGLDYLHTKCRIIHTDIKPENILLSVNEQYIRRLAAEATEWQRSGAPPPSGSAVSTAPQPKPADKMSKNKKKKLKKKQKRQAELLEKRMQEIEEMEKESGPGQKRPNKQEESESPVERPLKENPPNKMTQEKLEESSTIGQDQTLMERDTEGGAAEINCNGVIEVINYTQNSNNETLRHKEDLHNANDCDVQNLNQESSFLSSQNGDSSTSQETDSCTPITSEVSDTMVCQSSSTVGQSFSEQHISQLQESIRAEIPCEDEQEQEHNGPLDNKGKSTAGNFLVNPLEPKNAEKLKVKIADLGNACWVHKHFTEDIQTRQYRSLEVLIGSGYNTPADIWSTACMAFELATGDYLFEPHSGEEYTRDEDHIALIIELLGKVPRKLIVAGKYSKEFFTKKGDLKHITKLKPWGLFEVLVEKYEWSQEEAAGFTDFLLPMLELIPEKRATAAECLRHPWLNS
Chain of Mitogen-activated protein kinase kinase kinase 6 (Homo sapiens) (O95382 whole entry, the tested form may be a part): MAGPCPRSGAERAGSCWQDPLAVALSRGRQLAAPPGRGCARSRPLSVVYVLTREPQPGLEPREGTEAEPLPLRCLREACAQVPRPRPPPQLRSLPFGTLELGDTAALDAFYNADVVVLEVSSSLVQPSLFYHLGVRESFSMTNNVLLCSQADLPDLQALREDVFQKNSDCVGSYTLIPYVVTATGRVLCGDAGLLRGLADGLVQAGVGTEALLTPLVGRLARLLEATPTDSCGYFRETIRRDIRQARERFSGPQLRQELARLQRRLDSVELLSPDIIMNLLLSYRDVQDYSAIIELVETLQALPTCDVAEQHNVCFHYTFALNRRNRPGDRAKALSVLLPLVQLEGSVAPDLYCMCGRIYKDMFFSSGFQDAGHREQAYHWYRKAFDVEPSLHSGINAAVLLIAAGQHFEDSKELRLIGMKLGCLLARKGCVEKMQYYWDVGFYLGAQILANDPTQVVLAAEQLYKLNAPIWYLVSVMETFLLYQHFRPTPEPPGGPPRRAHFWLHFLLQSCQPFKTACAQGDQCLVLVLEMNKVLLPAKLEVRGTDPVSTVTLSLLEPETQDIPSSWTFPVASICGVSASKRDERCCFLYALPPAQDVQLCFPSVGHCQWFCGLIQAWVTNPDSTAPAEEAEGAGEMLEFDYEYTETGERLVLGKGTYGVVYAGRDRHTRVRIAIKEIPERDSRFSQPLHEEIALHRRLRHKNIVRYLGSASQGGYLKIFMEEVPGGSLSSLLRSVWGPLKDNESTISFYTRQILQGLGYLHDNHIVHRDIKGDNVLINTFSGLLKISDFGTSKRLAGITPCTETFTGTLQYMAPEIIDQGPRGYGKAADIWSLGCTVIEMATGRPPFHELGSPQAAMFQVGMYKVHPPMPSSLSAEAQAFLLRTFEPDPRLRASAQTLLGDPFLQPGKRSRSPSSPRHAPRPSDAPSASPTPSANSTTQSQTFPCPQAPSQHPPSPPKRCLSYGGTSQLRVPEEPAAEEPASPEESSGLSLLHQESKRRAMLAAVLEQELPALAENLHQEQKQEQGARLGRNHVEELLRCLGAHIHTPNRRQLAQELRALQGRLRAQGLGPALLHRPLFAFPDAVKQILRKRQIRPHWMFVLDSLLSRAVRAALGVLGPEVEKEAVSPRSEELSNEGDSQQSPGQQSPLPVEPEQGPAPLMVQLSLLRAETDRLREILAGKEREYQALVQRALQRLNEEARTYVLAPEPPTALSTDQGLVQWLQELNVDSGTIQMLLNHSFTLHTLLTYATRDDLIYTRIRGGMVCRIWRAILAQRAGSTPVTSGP
Chain of Protein kinase C epsilon type (Homo sapiens) (Q02156 whole entry, the tested form may be a part): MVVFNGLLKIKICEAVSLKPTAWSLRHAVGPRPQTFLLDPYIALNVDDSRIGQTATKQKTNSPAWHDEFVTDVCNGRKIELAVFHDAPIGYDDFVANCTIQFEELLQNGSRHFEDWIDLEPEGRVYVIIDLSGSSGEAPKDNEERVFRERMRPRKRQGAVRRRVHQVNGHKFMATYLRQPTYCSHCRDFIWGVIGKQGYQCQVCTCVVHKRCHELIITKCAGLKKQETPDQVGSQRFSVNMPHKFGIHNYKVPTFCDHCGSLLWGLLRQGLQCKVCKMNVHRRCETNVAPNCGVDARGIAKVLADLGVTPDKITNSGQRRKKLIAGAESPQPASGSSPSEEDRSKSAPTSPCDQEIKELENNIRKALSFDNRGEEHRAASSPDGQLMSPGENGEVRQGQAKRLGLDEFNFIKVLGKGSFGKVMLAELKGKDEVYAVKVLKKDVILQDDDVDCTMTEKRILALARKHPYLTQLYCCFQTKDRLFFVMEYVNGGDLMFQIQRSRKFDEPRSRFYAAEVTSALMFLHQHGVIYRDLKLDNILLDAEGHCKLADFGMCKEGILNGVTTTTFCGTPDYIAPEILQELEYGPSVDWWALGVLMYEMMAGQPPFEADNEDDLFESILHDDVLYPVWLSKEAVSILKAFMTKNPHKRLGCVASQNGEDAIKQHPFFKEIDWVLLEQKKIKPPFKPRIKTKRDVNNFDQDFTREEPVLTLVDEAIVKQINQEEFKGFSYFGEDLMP
Chain of Bone morphogenetic protein receptor type-2 (Homo sapiens) (Q13873 whole entry, the tested form may be a part): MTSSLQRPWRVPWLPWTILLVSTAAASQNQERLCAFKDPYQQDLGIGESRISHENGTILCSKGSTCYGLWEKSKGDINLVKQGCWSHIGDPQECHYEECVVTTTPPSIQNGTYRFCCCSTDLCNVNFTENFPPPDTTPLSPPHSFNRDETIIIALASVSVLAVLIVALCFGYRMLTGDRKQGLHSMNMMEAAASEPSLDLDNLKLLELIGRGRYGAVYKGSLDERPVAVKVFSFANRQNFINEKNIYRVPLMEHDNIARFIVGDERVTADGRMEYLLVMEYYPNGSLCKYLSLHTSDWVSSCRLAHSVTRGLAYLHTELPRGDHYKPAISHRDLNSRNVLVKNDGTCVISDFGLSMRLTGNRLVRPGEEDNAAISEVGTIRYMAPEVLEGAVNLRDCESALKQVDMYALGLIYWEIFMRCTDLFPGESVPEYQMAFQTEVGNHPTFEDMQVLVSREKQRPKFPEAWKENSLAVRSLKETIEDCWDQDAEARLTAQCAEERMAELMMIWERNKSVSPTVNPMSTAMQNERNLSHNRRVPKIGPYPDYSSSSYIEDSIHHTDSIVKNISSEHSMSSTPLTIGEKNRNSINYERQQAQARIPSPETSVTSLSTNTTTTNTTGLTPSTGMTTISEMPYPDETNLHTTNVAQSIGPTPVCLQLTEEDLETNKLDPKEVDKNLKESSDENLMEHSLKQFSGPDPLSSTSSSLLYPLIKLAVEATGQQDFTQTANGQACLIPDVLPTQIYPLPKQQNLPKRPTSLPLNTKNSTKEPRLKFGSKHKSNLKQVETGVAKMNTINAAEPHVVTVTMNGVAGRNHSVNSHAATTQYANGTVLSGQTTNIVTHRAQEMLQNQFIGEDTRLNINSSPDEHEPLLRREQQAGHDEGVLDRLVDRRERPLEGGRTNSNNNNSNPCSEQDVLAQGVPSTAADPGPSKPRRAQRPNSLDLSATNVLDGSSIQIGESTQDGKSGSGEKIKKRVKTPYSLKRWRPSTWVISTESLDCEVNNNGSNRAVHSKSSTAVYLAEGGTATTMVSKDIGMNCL
Chain of Ribosomal protein S6 kinase alpha-2 (Homo sapiens) (Q15349 whole entry, the tested form may be a part): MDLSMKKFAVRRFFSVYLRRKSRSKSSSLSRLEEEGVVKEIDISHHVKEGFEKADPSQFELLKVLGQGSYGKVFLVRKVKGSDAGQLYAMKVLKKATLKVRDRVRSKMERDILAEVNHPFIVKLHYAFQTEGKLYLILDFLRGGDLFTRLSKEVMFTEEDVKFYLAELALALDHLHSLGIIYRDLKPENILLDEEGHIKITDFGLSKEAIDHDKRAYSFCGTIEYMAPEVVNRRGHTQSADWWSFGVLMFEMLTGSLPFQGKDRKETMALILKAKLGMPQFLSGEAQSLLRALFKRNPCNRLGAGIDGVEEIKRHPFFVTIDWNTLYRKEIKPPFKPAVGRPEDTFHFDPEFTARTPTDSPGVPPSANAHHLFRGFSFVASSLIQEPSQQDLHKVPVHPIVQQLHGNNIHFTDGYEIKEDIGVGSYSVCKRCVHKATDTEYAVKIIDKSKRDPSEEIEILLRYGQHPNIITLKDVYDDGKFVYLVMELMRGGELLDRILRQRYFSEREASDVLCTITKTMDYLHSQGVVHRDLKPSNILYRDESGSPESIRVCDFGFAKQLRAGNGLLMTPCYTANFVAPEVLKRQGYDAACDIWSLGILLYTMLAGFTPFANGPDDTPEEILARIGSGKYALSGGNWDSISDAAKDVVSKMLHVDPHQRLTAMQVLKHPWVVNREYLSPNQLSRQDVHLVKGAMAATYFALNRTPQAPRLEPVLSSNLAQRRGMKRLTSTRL

With `O=C(Nc1cccc([C@@H]2CN(c3ncnc4[nH]ccc34)CCN2CCO)c1)Nc1c(F)cccc1N1CCCC1`, the inhibition amounted to 11% in data set [1]; 95% in data set [2]; 92% in data set [3]; 11% in data set [5]; 100% in data set [6]; 35% in data set [7]. The inhibition in data set [8] was determined as 100%; in data set [9] it was 81%; in [10] it was 100%; in data set [11], 37%; in data set [12], 77%; in data set [13] it was 72%. In addition, the inhibition in [14] was 9.6%; in data set [15], 0.8%; in data set [16], 91%; in data set [17], 65%. Besides, the logD in data set [4] turned out to be 2.6.
As to `O=C(Nc1cccc([C@H]2CCCN(c3ncnc4[nH]ccc34)C2)c1)Nc1ccccc1N1CCCC1`, the inhibition in data set [18] came out at 66%; in data set [19], 14%; in data set [20], 80%; in data set [21], 68%; in data set [22], 0.45%; in data set [23], 100%. The inhibition in [24] turned out to be 85%; in data set [25], 8.1%; in [26], 100%; in data set [27], 72%; in data set [28], 63%.
